Data reported in US20220259202A1, “1-(4-(AMINOMETHYL)BENZYL)-2-BUTYL-2H-PYRAZOLO[3,4-C]QUINOLIN-4-AMINE DERIVATIVES AND RELATED COMPOUNDS AS TOLL-LIKE RECEPTOR (TLR) 7/8 AGONISTS, AS WELL AS ANTIBODY DRUG CONJUGATES THEREOF FOR USE IN CANCER THERAPY AND DIAGNOSIS” (SUTRO BIOPHARMA, INC., priority 2019, published 2022).

Key:
cyno PBMCs = experiment: Compound-induced cytokine release (ELISA); assay type: cell-based, cynomolgus monkey; conditions: IL-6 and MCP-1 (FIG. 5A-5B); 48 hr
Method: This example evaluates the ability of Compound 1 to induce cytokine release in human PBMCs, cyno PBMCs and mouse splenocytes. Compound A and resiquimod, above, were used as controls in the assays.
Human and cyno PBMCs, mouse splenocytes were isolated as described in previous example. On the day of the assay, 300k of PBMC or splenocytes in 50 μL of culture medium were seeded in 96-well cell culture plates. 50 μL of the test articles (formulated at 2× of starting concentration) were then added into the well. The cell mixtures were co-cultured in the presence of test articles and 10 μg/mL LPS-RS for 24 hrs (human PBMCs) or 48 hr (cyno PBMCs and mouse splenocytes). Released cytokines in cell culture medium were measured by ELISA.

human and mouse TLRs = experiment: HEK293 SEAP reporter panel of human and mouse TLRs, specificity; assay type: cell-based; conditions: 16 hrs
Description: In this example, the activity of the Compound 1 to stimulate different human and mouse TLR pathways was investigated on HEK293 cells transfected with inducible SEAP (secreted embryonic alkaline phosphatase) reporter genes and also expressing different human TLRs (TLR2, TLR3, TLR4, TLR5, TLR7, TLR8, TLRS) or mouse TLRs (TLR2, TLR3, TLR4, TLR5, TLR7, TLR8, TLR13). Compound A
HEK293 reporter cell lines were purchased from Invivogen and cell lines were maintained in manufacture recommended culture medium with required supplemental antibiotics. On the day of assay, the cells were harvested with Accutase and counted by the Vi-CELL Cell Viability Analyzers. Cells were re-suspended in HEK blue detection medium and a total of 10000 cells were seeded in each well of a 384-well flat bottom plate. […] Assay plates were cultured at 37° C. in a CO2 incubator for 16 hrs. HEK-Blue™ Detection medium changes to a purple/blue color in the presence of secreted SEAP, which can be detected by spectrophotometry at 620-655 nm. Data was fitted with non-linear regression analysis, using a log(inhibitor) vs. response-variable slope, 3-parameter fit with GraphPad Prism.

human TLR8 = target: T1, human TLR8 (Homo sapiens, UniProt Q9NR97); experiment: HEK293 SEAP reporter assay, human TLR8 (Biological Example 1); assay type: cell-based; conditions: HEK293-humanTLR8 reporter cells, 4 hrs; read-out: hTLR8 EC50
T1 construct: host or cells: HEK293
T1 sequence (Q9NR97 27-1041): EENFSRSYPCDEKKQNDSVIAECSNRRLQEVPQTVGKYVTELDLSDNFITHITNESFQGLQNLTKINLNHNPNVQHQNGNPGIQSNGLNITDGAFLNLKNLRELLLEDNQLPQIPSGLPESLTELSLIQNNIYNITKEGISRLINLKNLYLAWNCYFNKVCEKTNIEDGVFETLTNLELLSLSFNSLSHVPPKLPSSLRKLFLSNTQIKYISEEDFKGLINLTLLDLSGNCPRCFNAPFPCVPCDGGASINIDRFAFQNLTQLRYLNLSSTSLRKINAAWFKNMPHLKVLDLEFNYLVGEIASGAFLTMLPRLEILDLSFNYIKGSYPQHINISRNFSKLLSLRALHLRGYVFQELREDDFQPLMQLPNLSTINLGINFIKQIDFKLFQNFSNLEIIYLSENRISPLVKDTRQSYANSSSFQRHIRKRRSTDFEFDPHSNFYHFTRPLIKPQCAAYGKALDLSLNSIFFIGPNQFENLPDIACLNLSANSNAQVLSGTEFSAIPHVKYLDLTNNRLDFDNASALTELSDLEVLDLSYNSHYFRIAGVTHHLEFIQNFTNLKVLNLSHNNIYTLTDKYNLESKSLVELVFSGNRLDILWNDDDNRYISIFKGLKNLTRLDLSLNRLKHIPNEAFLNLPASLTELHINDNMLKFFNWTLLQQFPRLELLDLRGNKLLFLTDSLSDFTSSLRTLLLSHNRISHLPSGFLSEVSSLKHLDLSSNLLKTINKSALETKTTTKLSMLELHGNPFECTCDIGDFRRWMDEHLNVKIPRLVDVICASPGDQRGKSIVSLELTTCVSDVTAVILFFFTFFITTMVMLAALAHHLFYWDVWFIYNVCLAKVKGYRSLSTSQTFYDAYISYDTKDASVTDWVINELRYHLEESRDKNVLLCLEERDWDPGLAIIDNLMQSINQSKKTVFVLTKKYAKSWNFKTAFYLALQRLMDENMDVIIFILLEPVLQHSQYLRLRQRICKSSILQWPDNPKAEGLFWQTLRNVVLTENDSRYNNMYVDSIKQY
Method: In this example, the activity of the TLR7 agonists to activate human TLR7, hTLR7 (or human TLR8, hTLR8, or mouse TLR7, mTLR7) pathway was evaluated on HEK293 reporter cells transfected with human TLR7 (or mouse TLR7 or human TLR8) and an inducible SEAP (secreted embryonic alkaline phosphatase) reporter gene. The SEAP reporter gene is placed under the control of the IFN-β minimal promoter fused to five NF-κB and AP-1-binding sites. Stimulation with a TLR7 agonist activates NF-KB and AP-1 which induces the production of SEAP. Levels of SEAP was determined with HEK-Blue Detection medium.
HEK293-humanTLR7, HEK293-mouseTLR7 and HEK293-humanTLR8 reporter cell lines were purchased from Invivogen and cell lines were maintained in manufacture recommended culture medium with required supplemental antibiotics. On the day of assay, the cells were harvested with Accutase and counted by the Vi-CELL Cell Viability Analyzers. Cells were re-suspended in HEK blue detection medium and a total of 10000 cells were seeded in each well of a 384-well flat bottom plate. Serial dilutions of TLR7 agonists free drugs (1:3 serial dilution starting from 5 μM) was added into treatment wells. Assay plates were cultured at 37° C. in a CO2 incubator for […]. HEK-Blue™ Detection medium changes to a purple/blue color in the presence of secreted SEAP, which can be detected by spectrophotometry at 620-655 nm. […]

EC50 (human TLR8): 820 nM
SMILES: CCCCn1nc2c(N)nc3ccccc3c2c1Cc1ccc(CN)cc1 [Compound 1, 1-(4-(aminomethyl)benzyl)-2-butyl-2H-pyrazolo[3,4-c]quinolin-4-amine]
cytokine release from cyno PBMCs (cyno PBMCs): stimulated strong | specificity among human and mouse TLRs (human and mouse TLRs): very specific to human and mouse TLR7 and human TLR8
